Source: paper PMC10763564, “BrainBike peptidomimetic enables efficient transport of proteins across brain endothelium” (RSC Chemical Biology, 2023)
Starred links: 1 amine or outer side, 2 acyl side, 3 side chain; linkers in the order of their positions; H or OH if unused. Positions of bridges follow the written chain, without caps; N, C: chain ends. Residues, ends and D or L forms follow the SMILES beside them. TBMB = c1c(C[*:1])cc(C[*:3])cc1C[*:2]

Key:
[1] = biological target: HeLa cells (TfR1+) (Homo sapiens, UniProt P02786); test: Cell binding assay of sCy5-labelled peptides to HeLa cells by flow cytometry; assay type: cell-based; settings: 5 to 600 nM, 4 °C, 1 hour, geometric mean vs concentration
Experimental: HeLa cells were cultured in DMEM media (1000 mg/L glucose) supplemented with 10% fetal bovine serum (FBS), 1% of 2 mM L -glutamine and 1% antibiotics (100 units/mL of penicillin and 100 µg/mL of streptomycin). Cells were expanded at 80% confluence and grown at 37°C with 5% CO2. All work performed with human cells follow the ethical principles and EU […]
Cell transfection of HeLa cells to express higher levels of TfR1
In a 96-well plate, 10,000 HeLa cells per well were seeded and left to grow for 24 h. A mixture of Lipofectamine 3000 (0.1 µL/well, Lipofectamine™ 3000 Transfection Reagent, ThermoFisher Scientific ), P3000 Reagent (0.2 µL/well) and the DNA pTfR-mNeonGreen (Plasmid #129608, Addgene) (100 ng/well ) in Opti-MEM medium was prepared. The mixture was incubated for 15 mi n, added to the cells, and incubated for 48 h.
48-hour post-transfection, 50 μl of the sulfo-Cy5-labelled peptides were added to each well at the appropriate concentration (from 5 to 600 nM) and incubated at 4°C for 1 hour. Cells were washed three times with 100 μL of PBS, trypsinized with 25 μl of trypsin for 5 min at 37°C and, then 75 μL of supplemented medium with formalin (33% v/v) was added. Cells were detached by repeated pipetting and analysed using an Agilent NovoCyteflow cytometer (Agilent). sCy5 was analysed at 640 nm while mNeon-Green at 488 nm. Data was analysed by plotting the geometric mean vs the concentration of the peptide. […]

[2] = Peptide stability in human serum; assay type: in vitro ADME; settings: peptide 100 µM, 37 °C, aliquots 0 min to 48 h, MeOH protein precipitation, % intact peptide by UHPLC-UV, confirmed with mass spectrometry
Experimental: Peptide stability in human serum
Peptides were dissolved in human serum at a final concentration of 100 µM and then incubated at 37 °C. Aliquots of 50 µL were taken at different times (0 min, 15 min, 30 min, 1 h, 2 h, 4 h, 6 h, 24 h and 48 h) and flash frozen with acetone/solid CO 2. Samples were treated with 200 µL of MeOH to precipitate serum proteins. Samples for U HPLC analysis were centrifuged and filtered through a 0.22 µm filter before injection. Aliquots were analysed with UHPLC-UV (flow = 0.61 mL/min; gradient 5 -95% MeCN (0.036% TFA) in water (0.045% TFA) in 2 minutes). The amount of peptide remaining was calculated by comparing the area under the curve of the several samples. […]

[3] = system: human brain endothelial cells monolayer (BBB model); test: Permeability assay in the in vitro BBB cellular model (human brain-like endothelial cells on Transwell); assay type: in vitro ADME; settings: human cell-based BBB model
Experimental: 48-hour post-transfection, 50 μl of the sulfo-Cy5-labelled peptides were added to each well at the appropriate concentration (from 5 to 600 nM) and incubated at 4°C for 1 hour. Cells were washed three times with 100 μL of PBS, trypsinized with 25 μl of trypsin for 5 min at 37°C and, then 75 μL of supplemented medium with formalin (33% v/v) was added. Cells were detached by repeated pipetting and analysed using an Agilent NovoCyteflow cytometer (Agilent). sCy5 was analysed at 640 nm while mNeon-Green at 488 nm. Data was analysed by plotting the geometric mean vs the concentration of the peptide.
Permeability assays in the in vitro BBB cellular model […]
the compound in Ringer HEPES was added to the donor compartment and 1500 µL of Ringer HEPES was introduced into the acceptor compartment. The plates were incubated for 2 h at 37 °C, and the solutions from both compartments were recovered and analysed. The samples were evaluated in triplicates. The amount of protein conjugates was quantified by fluorescence with Fluorescence Spectrophotometer F2500 HITACHI. […] The voltage for the detector was 700 V. Apparent permeability was calculated with the following formula: […]

[4] = biological target: T1, human Transferrin Receptor (Homo sapiens, UniProt P02786); test: Biolayer interferometry with immobilized extracellular domain of the receptor; settings: biotinylated hTfR on streptavidin biosensors, Octet R2, 25 °C, 10 mM HEPES pH 7.4, 150 mM NaCl, 0.05 % Tween-20, 1 mg/mL BSA; peptide 11.1, 33.3, 100 µM; 1:1 binding model; read-out: KD, binding to immobilized human TfR
T1 construct: purchased Acro Biosystems TFR-H82E5
Experimental: Biophysical characterization
Binding assays were performed on an Octet R2 (Sartorious) using streptavidin-coated biosensors (SA biosensors, 18-5019). Biosensors were equilibrated for at least 10 min in binding buffer (10 mM HEPES pH 7.4, 150 mM NaCl, 0.05 % Tween-20, 1 mg/mL BSA).
Experiments were designed and executed from the Octet BLI Discovery 13.0 software. The biotinylated human Transferrin Receptor (TFR-H82E5, Acro Biosystems) was immobilized onto the biosensor by dipping the sensors into a solution of 1 µg/mL hTfR for 500 s, followed by dipping the sensor into a fresh solution of binding buffer to stablish a baseline for 200 s.
Titrations were executed at 25 °C while rotating at 1000 rpm. In the association phase, the sensors were dipped into a solution containing the peptides at several concentrations in binding buffer for 150 s. After reaching equilibrium, the biosensors were dipped into fresh binding solution to monitor the dissociation kinetics for 200 s. Kinetic data were collected and processed using a 1:1 binding model to obtain the affinity constants using the Octet Analysis […]
Unpaired two-tailed student t tests were applied to evaluate the significant difference or p values between data sets using Prism 6.0c software.
1. C. Heinis, T. Rutherford, S. Freund and G. Winter, Nat Chem Biol, 2009, 5, 502–507.
2. […]

Sequence of HeLa cells (TfR1+) (P02786 whole entry): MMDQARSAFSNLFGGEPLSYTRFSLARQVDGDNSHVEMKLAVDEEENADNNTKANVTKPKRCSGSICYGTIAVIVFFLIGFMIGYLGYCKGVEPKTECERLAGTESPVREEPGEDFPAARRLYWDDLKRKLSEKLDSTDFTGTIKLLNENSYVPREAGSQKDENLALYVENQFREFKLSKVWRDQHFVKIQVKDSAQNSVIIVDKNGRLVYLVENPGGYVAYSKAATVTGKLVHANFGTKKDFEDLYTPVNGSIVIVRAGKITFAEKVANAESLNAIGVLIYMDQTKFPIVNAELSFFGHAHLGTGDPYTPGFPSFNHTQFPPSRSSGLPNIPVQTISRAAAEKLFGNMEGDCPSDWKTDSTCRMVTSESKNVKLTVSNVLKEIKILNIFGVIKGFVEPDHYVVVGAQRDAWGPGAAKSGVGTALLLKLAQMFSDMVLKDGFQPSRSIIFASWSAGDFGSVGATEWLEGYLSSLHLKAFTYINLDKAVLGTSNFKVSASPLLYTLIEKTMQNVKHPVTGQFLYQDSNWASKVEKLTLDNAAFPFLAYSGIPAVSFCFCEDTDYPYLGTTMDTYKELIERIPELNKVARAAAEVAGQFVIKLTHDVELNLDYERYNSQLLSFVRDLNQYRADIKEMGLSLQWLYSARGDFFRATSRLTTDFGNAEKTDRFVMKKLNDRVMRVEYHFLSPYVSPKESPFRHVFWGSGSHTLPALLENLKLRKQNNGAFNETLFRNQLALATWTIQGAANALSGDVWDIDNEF
T1 sequence (P02786 89-760 limits assumed): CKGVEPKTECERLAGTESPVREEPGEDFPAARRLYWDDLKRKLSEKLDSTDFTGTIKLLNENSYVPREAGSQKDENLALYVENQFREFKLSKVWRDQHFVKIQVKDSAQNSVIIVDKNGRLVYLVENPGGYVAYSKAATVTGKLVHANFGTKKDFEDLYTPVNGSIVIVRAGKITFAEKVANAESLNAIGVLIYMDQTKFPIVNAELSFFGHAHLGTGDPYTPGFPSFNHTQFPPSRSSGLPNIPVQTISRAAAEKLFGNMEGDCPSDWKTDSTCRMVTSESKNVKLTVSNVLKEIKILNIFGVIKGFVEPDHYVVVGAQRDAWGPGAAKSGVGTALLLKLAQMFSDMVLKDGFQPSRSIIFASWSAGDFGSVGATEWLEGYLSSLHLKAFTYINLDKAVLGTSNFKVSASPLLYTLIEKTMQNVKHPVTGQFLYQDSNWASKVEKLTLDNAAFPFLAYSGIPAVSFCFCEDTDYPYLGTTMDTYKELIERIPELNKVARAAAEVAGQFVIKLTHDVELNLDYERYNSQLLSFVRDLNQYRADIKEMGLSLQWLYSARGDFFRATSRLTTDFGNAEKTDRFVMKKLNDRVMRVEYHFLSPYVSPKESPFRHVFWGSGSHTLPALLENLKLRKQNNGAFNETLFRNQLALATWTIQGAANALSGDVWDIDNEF

CC(C)[C@@H]1NC(=O)[C@@H](N)CSCc2cc3cc(c2)CSC[C@H](NC(=O)[C@H](CC(=O)O)NC(=O)[C@H](Cc2c[nH]c4ccccc24)NC(=O)[C@H](Cc2c[nH]cn2)NC1=O)C(=O)N[C@@H](CCCNC(=N)N)C(=O)N[C@@H](CCC(N)=O)C(=O)N[C@@H](Cc1c[nH]c2ccccc12)C(=O)N[C@@H](Cc1c[nH]c2ccccc12)C(=O)N[C@@H](CCC(N)=O)C(=O)N1CCC[C@H]1C(=O)N[C@@H](CO)C(=O)N[C@H](C(N)=O)CSC3 [BrainBike-1] (H-CVHWDCRQWWQPSC-NH2; linker 1-6-14 via TBMB)
App. Kd, association to HeLa cells (TfR1+) [1]: > 400 nM
half-life at 100 µM [2]: 7.7 ± 1.9 h

CC(C)[C@@H]1NC(=O)[C@@H](N)CSCc2cc3cc(c2)CSC[C@H](NC(=O)[C@H](Cc2c[nH]c4ccccc24)NC(=O)[C@H](CCC(N)=O)NC(=O)[C@H](CCCNC(=N)N)NC(=O)[C@H](Cc2ccccc2)NC(=O)[C@H](CC(=O)O)NC(=O)[C@H](Cc2c[nH]c4ccccc24)NC(=O)[C@H](Cc2c[nH]cn2)NC1=O)C(=O)N[C@@H](CCC(N)=O)C(=O)N1CCC[C@H]1C(=O)N[C@@H](CO)C(=O)N[C@H](C(N)=O)CSC3 [BrainBike-2] (H-CVHWDFRQWCQPSC-NH2; linker 1-10-14 via TBMB)
App. Kd, association to HeLa cells (TfR1+) [1]: 120 ± 15 nM
half-life at 100 µM [2]: 3.5 ± 0.3 h

CC(C)[C@@H]1NC(=O)[C@@H](N)CSCc2cc3cc(c2)CSC[C@H](NC(=O)[C@H](CCCNC(=N)N)NC(=O)[C@H](Cc2ccccc2)NC(=O)[C@H](CC(=O)O)NC(=O)[C@H](Cc2c[nH]c4ccccc24)NC(=O)[C@H](Cc2c[nH]cn2)NC1=O)C(=O)N[C@@H](CCC(N)=O)C(=O)N[C@@H](Cc1c[nH]c2ccccc12)C(=O)N[C@@H](Cc1c[nH]c2ccccc12)C(=O)N[C@@H](CCC(N)=O)C(=O)N1CCC[C@H]1C(=O)N[C@@H](CO)C(=O)N[C@H](C(N)=O)CSC3 [BrainBike-3] (H-CVHWDFRCQWWQPSC-NH2; linker 1-8-15 via TBMB)
App. Kd, association to HeLa cells (TfR1+) [1]: 250 ± 5 nM
half-life at 100 µM [2]: 4.8 ± 0.6 h

CC(C)[C@@H]1NC(=O)[C@@H](N)CSCc2cc3cc(c2)CSC[C@H](NC(=O)[C@H](CC(=O)O)NC(=O)[C@H](Cc2c[nH]c4ccccc24)NC(=O)[C@H](Cc2c[nH]cn2)NC1=O)C(=O)N[C@@H](CCCNC(=N)N)C(=O)N[C@@H](CCC(N)=O)C(=O)N[C@@H](Cc1c[nH]c2ccccc12)C(=O)N[C@H](C(N)=O)CSC3 [BrainBike-4] (H-CVHWDCRQWC-NH2; linker 1-6-10 via TBMB)
App. Kd, association to HeLa cells (TfR1+) [1]: roughly 40 nM
App. Kd, association to HeLa cells (TfR1+) ([1]; listed as BB4): 37 ± 2 nM
Fold increase in the transport of GFP on conjugation to the shuttle ([3]; GFP conjugate vs GFP): 4 fold
Fold increase in the transport of the scFv on conjugation to the shuttle ([3]; sCy5-labelled scFv conjugate vs scFv): 5 fold
half-life at 100 µM [2]: 5.5 ± 2.5 h

H-GVHWDFRQWWQPS-NH2 [Y1, reference compound]
App. Kd, association to HeLa cells (TfR1+) [1]: 270 ± 5 nM
Kd [4]: > 100000 nM
half-life at 100 µM [2]: 1.8 ± 0.5 h
